These results are taken from ChEMBL document CHEMBL3714741, “Compounds and compositions as ITPKB inhibitors” (2011).

The source made the active and inactive calls. The rule behind the calls is not given here.

For this test, the target named is T1, Inositol-trisphosphate 3-kinase B (Homo sapiens) (UniProt P27987).
T1 sequence (whole entry): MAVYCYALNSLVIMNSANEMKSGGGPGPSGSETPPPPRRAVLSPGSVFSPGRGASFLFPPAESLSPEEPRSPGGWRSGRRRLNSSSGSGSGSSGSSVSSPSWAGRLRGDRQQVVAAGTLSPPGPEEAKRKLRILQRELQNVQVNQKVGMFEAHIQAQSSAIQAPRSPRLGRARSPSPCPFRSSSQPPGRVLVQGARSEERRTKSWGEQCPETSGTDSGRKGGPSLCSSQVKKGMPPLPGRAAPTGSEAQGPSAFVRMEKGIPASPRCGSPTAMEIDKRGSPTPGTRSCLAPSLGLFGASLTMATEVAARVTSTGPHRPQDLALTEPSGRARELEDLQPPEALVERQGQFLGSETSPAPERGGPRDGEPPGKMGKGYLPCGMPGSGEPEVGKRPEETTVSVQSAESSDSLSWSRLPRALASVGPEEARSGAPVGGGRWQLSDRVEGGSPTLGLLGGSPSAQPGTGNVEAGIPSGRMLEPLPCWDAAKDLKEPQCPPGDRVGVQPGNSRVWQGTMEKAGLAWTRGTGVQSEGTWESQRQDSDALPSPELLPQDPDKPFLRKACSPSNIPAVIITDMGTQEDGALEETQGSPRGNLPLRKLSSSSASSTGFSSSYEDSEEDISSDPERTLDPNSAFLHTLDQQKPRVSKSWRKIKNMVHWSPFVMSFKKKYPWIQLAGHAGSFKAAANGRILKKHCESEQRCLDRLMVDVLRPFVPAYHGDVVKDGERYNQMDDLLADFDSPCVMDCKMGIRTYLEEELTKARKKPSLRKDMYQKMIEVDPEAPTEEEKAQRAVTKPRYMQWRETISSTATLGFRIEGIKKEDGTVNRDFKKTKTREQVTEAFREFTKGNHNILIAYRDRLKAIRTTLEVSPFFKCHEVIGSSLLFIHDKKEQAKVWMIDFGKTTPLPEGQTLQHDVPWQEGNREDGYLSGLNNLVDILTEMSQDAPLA
The test is described as follows: Inhibition of ITPKb in human Jurkat cells assessed as reduction in conversion of IP3 to IP4 using [3H]-myo-inositol incubated for 5 mins by beta-RAM radio-HPLC method. The class given is cell-based.
As to `C[C@@H]1CN(Cc2c[nH]nc2-c2nc3cc(F)ccc3[nH]2)CCN1c1ccc(C(F)(F)F)cn1`, the inhibition result was “Active”.
Turning to `C[C@@H]1CN(Cc2c[nH]nc2-c2nc3c([nH]2)CCCC3)CCN1c1ccc(C(F)(F)F)cn1`, the inhibition result was “Active”.
Consider `COC(=O)c1ccc(-c2n[nH]cc2CN2CCN(c3ccc(C(F)(F)F)cn3)[C@H](C)C2)o1`, for which the inhibition result is “Active”.
The value for `C[C@@H]1CN(Cc2c[nH]nc2/C=C2\NC(=N)NC2=O)CCN1c1ccc(C(F)(F)F)cn1` was “Active”; that for `CC(O)CNC(=O)c1c[nH]c(-c2n[nH]cc2CN2CCN(c3ccc(C(F)(F)F)cn3)[C@H](C)C2)c1` (some centres not stated) was “Active”; that for `C[C@@H]1CN(Cc2c[nH]nc2-c2ccc3cnccc3c2)CCN1c1ccc(C(F)(F)F)cn1` was “Active”.
For `C[C@@H]1CN(Cc2c[nH]nc2C(=O)Nc2ccncc2)CCN1c1ccc(C(F)(F)F)cn1`, the inhibition entry was “Active”.
Turning to `C[C@@H]1CN(Cc2c[nH]nc2-c2nc(C(F)(F)F)c[nH]2)CCN1c1ccc(C(F)(F)F)cn1`, the inhibition entry was “Active”.
On to `C[C@@H]1CN(Cc2c[nH]nc2C(=O)N2CCC(O)CC2)CCN1c1ccc(C(F)(F)F)cn1`, for which the inhibition entry was “Active”.
Regarding `Cc1cc(NC(=O)c2n[nH]cc2CN2CCN(c3ccc(C(F)(F)F)cn3)[C@H](C)C2)n(CCN(C)C)n1`, the inhibition result is “Active”.
The value for `C[C@@H]1CN(Cc2c[nH]nc2-c2ccc(C(N)=O)o2)CCN1c1ccc(C(F)(F)F)cn1` was “Active”; that for `C[C@@H]1CN(Cc2c[nH]nc2-c2cc(C(=O)O)co2)CCN1c1ccc(C(F)(F)F)cn1` was “Active”; that for `C[C@@H]1CN(Cc2c[nH]nc2-c2ccc(C(N)=O)[nH]2)CCN1c1ccc(C(F)(F)F)cn1` was “Active”.
Consider `C[C@@H]1CN(Cc2c[nH]nc2-c2cc(C(=O)NCCO)c[nH]2)CCN1c1ccc(C(F)(F)F)cn1`, for which the inhibition entry is “Active”.
For `C[C@@H]1CN(Cc2c[nH]nc2-c2cc(C#N)c[nH]2)CCN1c1ccc(C(F)(F)F)cn1`, the inhibition result was “Active”.
On to `C[C@@H]1CN(Cc2c[nH]nc2/C=C2\NC(=S)NC2=O)CCN1c1ccc(C(F)(F)F)cn1`, for which the inhibition entry was “Active”.
The value for `C[C@@H]1CN(Cc2c[nH]nc2-c2nc3cnccc3[nH]2)CCN1c1ccc(C(F)(F)F)cn1` was “Active”; that for `C[C@@H]1CN(Cc2c[nH]nc2-c2c[nH]c3ncccc23)CCN1c1ccc(C(F)(F)F)cn1` was “Active”; that for `C[C@@H]1CN(Cc2c[nH]nc2C2=CCN(C(=O)CCO)CC2)CCN1c1ccc(C(F)(F)F)cn1` was “Active”.
Turning to `C[C@@H]1CN(Cc2c[nH]nc2C2=CCN(C=O)CC2)CCN1c1ccc(C(F)(F)F)cn1`, the inhibition result was “Active”.
Regarding `C[C@@H]1CN(Cc2c[nH]nc2/C=C2\NC(=O)NC2=O)CCN1c1ccc(C(F)(F)F)cn1`, the inhibition result is “Active”.
As for `C[C@@H]1CN(Cc2c[nH]nc2C(=O)N2CCC(O)C2)CCN1c1ccc(C(F)(F)F)cn1` (some centres not stated), the inhibition entry is “Active”.
With `C[C@@H]1CN(Cc2c[nH]nc2C2=CCNCC2)CCN1c1ccc(C(F)(F)F)cn1`, the inhibition entry is “Active”.
Turning to `C[C@@H]1CN(Cc2c[nH]nc2C(=O)N2CC(O)C2)CCN1c1ccc(C(F)(F)F)cn1`, the inhibition entry was “Active”.
Consider `C[C@@H]1CN(Cc2c[nH]nc2-c2nc3ccccc3[nH]2)CCN1c1ccc(C(F)(F)F)cn1`, for which the inhibition entry is “Active”.
Take `C[C@@H]1CN(Cc2c[nH]nc2-c2cc(C(N)=O)c[nH]2)CCN1c1ccc(C(F)(F)F)cn1`: the inhibition entry was “Active”.
For `C[C@@H]1CN(Cc2c[nH]nc2-c2cc(C(N)=O)co2)CCN1c1ccc(C(F)(F)F)cn1`, the inhibition result was “Active”.
The value for `C[C@@H]1CN(Cc2c[nH]nc2-c2ccc(C(=O)O)o2)CCN1c1ccc(C(F)(F)F)cn1` was “Active”; that for `C[C@@H]1CN(Cc2c[nH]nc2C(=O)Nc2n[nH]cc2C#N)CCN1c1ccc(C(F)(F)F)cn1` was “Active”; that for `C[C@@H]1CN(Cc2c[nH]nc2-c2cc(C(=O)N(C)C)c[nH]2)CCN1c1ccc(C(F)(F)F)cn1` was “Active”.
Take `C[C@@H]1CN(Cc2c[nH]nc2-c2ccc(C#N)[nH]2)CCN1c1ccc(C(F)(F)F)cn1`: the inhibition entry was “Active”.
`C[C@@H]1CN(Cc2c[nH]nc2C2CCN(C=O)CC2)CCN1c1ccc(C(F)(F)F)cn1`: the inhibition entry is “Active”.
For `C[C@@H]1CN(Cc2c[nH]nc2C2CCNCC2)CCN1c1ccc(C(F)(F)F)cn1`, the inhibition entry was “Active”.
`C[C@@H]1CN(Cc2c[nH]nc2-c2nc(-c3ccccc3)c[nH]2)CCN1c1ccc(C(F)(F)F)cn1`: the inhibition entry was “Active”.
The same measure for `C[C@@H]1CN(Cc2c[nH]nc2-c2ccnc3[nH]ccc23)CCN1c1ccc(C(F)(F)F)cn1`: “Active”; for `CC(=O)N1CC=C(c2n[nH]cc2CN2CCN(c3ccc(C(F)(F)F)cn3)[C@H](C)C2)CC1`: “Active”.
Take `FC(F)(F)c1ccc(N2CCN(Cc3c[nH]nc3-c3cccs3)CC2)nc1`: the inhibition entry was “Active”.
The value for `C[C@@H]1CN(Cc2c[nH]nc2C(=O)Nc2nc[nH]c2C#N)CCN1c1ccc(C(F)(F)F)cn1` was “Active”; that for `C[C@@H]1CN(Cc2c[nH]nc2-c2c[nH]c(C(N)=O)c2)CCN1c1ccc(C(F)(F)F)cn1` was “Active”; that for `C[C@@H]1CN(Cc2c[nH]nc2-c2c[nH]c(C#N)c2)CCN1c1ccc(C(F)(F)F)cn1` was “Active”.
The same measure for `N#Cc1c[nH]c(-c2n[nH]cc2CN2CCN(c3ccc(C(F)(F)F)cn3)[C@H](C(F)(F)F)C2)c1`: “Active”; for `C[C@@H]1CN(Cc2c[nH]nc2-c2nc3cc(C#N)ccc3[nH]2)CCN1c1ccc(C(F)(F)F)cn1`: “Active”.
Regarding `Cc1nc(-c2n[nH]cc2CN2CCN(c3ccc(C(F)(F)F)cn3)[C@H](C)C2)[nH]c1C`, the inhibition result was “Active”.
As for `C[C@@H]1CN(Cc2c[nH]nc2-c2nc(C#N)c[nH]2)CCN1c1ccc(C(F)(F)F)cn1`, the inhibition entry was “Active”.
For the molecule `C[C@@H]1CN(Cc2c[nH]nc2-c2cc(C(=O)N[C@@H](C)CO)c[nH]2)CCN1c1ccc(C(F)(F)F)cn1`, the inhibition result is “Active”.
As to `C[C@@H]1CN(Cc2c[nH]nc2-c2nc(C(=N)N)c[nH]2)CCN1c1ccc(C(F)(F)F)cn1`, the inhibition entry is “Active”.
As for `C[C@@H]1CN(Cc2c[nH]nc2-c2nc(C(N)=O)c[nH]2)CCN1c1ccc(C(F)(F)F)cn1`, the inhibition entry is “Active”.
For `C[C@@H]1CN(Cc2c[nH]nc2-c2ccc(C#N)c(=O)[nH]2)CCN1c1ccc(C(F)(F)F)cn1`, the inhibition entry was “Active”.
The same measure for `NC(=O)c1c[nH]c(-c2n[nH]cc2CN2CCN(c3ccc(C(F)(F)F)cn3)[C@H](C(F)(F)F)C2)c1`: “Active”; for `CNC(=O)c1c[nH]c(-c2n[nH]cc2CN2CCN(c3ccc(C(F)(F)F)cn3)[C@H](C)C2)c1`: “Active”.
As for `C[C@@H]1CN(Cc2c[nH]nc2-c2cc3ccccc3[nH]2)CCN1c1ccc(C(F)(F)F)cn1`, the inhibition result was “Active”.
The same measure for `C[C@@H]1CN(Cc2c[nH]nc2C(=O)Nc2cc(-c3ccco3)n[nH]2)CCN1c1ccc(C(F)(F)F)cn1`: “Active”.
